Measurements as given in US20250228239A1, “MOLECULES HAVING PESTICIDAL UTILITY, AND INTERMEDIATES, COMPOSITIONS, AND PROCESSES, RELATED THERETO” (priority 2024, published 2025).

Key:
Assay type in all cases: in vivo
[1] = tested on: Beet Armyworm (Spodoptera exigua, LAPHEG); assay: Bioassays on Beet Armyworm (BAW), 128-well diet tray assay; settings: Spodoptera exigua; Beet Armyworm, Table ABC / ABC-DP rating; read-out: BAW rating
Procedure, shortened: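 One to five second-instar larvae per well on artificial diet surface-treated with 50 μg/cm^2 test molecule (applied in 90:10 acetone-water, dried), eight wells per compound. Trays held vented at 25° C., 14:10 light-dark for five to seven days; percent mortality averaged over the eight wells.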

[2] = tested on: Cabbage Looper (Trichoplusia ni, TRIPNI); assay: Bioassays on Cabbage Looper (CL), 128-well diet tray assay; settings: Trichoplusia ni; Cabbage Looper, Table ABC / ABC-DP rating; read-out: CL rating
Procedure, shortened: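 One to five second-instar larvae per well on artificial diet surface-treated with 50 μg/cm^2 test molecule (applied in 90:10 acetone-water, dried). Held 5–7 days at 25° C, 14:10 light-dark; percent mortality recorded per well and averaged over eight wells.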

[3] = tested on: Yellow Fever Mosquito (Aedes aegypti, AEDSAE); settings: Yellow Fever Mosquito, Table ABC / ABC-DP rating
Procedure, shortened: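 Rating-scale grades reflect larval mortality scored per well after 3 days at room temperature under non-evaporative lids. Larvae (~1 day old, hatched overnight in liver-powder water) were added to six daughter plates per compound, prepared from a 4000 ppm DMSO stock diluted in 90:10 water/acetone.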

| SMILES | pest or weed control at 50 µg/cm2 [1] [%] | pest or weed control at 50 µg/cm2 [2] [%] | YFM rating [3] |
| --- | --- | --- | --- |
| CC(=O)CNC(=O)c1cc(NC(=O)[C@H]2[C@H](c3cc(Cl)cc(Cl)c3)C2(Cl)Cl)cc(F)c1Cl (relative stereo) [F2090, trans-2-Chloro-5-(2,2-dichloro-3-(3,5-dichlorophenyl)cyclopropane-1-carboxamido)-3-fluoro-N-(2-oxopropyl)benzamide] | 50 to 100 | 50 to 100 | A (80–100) |
| O=C(NCC(F)(F)c1ccccc1)c1cc(NC(=O)[C@H]2[C@H](c3cc(Cl)cc(Cl)c3)C2(Cl)Cl)cc(F)c1Cl (relative stereo) [F2091, trans-2-Chloro-5-(2,2-dichloro-3-(3,5-dichlorophenyl)cyclopropane-1-carboxamido)-N-(2,2-difluoro-2-phenylethyl)-3-fluorobenzamide] | 50 to 100 | 50 to 100 | A (80–100) |
| O=C(CCNC(=O)c1cc(NC(=O)[C@H]2[C@H](c3cc(Cl)cc(Cl)c3)C2(Cl)Cl)ccc1Cl)NCCC(F)(F)F (relative stereo) [F2092, trans-2-Chloro-5-(2,2-dichloro-3-(3,5-dichlorophenyl)cyclopropane-1-carboxamido)-N-(3-oxo-3-(3,3,3-trifluoropropylamino)propyl)benzamide] | 50 to 100 | 50 to 100 | B (More than 0 – Less than 80) |
| O=C(CCCNC(=O)c1cc(NC(=O)[C@H]2[C@H](c3cc(Cl)cc(Cl)c3)C2(Cl)Cl)ccc1Cl)NCCC(F)(F)F (relative stereo) [F2093, trans-2-Chloro-5-(2,2-dichloro-3-(3,5-dichlorophenyl)cyclopropanecarboxamido)-N-(4-oxo-4-(3,3,3-trifluoropropylamino)butyl)benzamide] | 50 to 100 | 50 to 100 | B (More than 0 – Less than 80) |
| O=C(NCCCNC(=O)C(F)(F)F)c1cc(NC(=O)[C@H]2[C@H](c3cc(Cl)cc(Cl)c3)C2(Cl)Cl)ccc1Cl (relative stereo) [F2094, trans-2-Chloro-5-(2,2-dichloro-3-(3,5-dichlorophenyl)cyclopropane-1-carboxamido)-N-(3-(2,2,2-trifluoroacetamido)propyl)benzamide] | 50 to 100 | 50 to 100 | B (More than 0 – Less than 80) |
| O=C(NCCCCNC(=O)C(F)(F)F)c1cc(NC(=O)[C@H]2[C@H](c3cc(Cl)cc(Cl)c3)C2(Cl)Cl)ccc1Cl (relative stereo) [F2095, trans-2-Chloro-5-(2,2-dichloro-3-(3,5-dichlorophenyl)cyclopropane-1-carboxamido)-N-(4-(2,2,2-trifluoroacetamido)butyl)benzamide] | 50 to 100 | 50 to 100 | A (80–100) |
| O=C(NCCNC(=O)C(F)(F)C(F)(F)F)c1cc(NC(=O)[C@H]2[C@H](c3cc(Cl)cc(Cl)c3)C2(Cl)Cl)ccc1Cl (relative stereo) [F2096, trans-2-Chloro-5-(2,2-dichloro-3-(3,5-dichlorophenyl)cyclopropane-1-carboxamido)-N-(2-(2,2,3,3,3-pentafluoropropanamido)ethyl)benzamide] | 50 to 100 | 50 to 100 | B (More than 0 – Less than 80) |
| O=C(NCCCNC(=O)C(F)(F)C(F)(F)F)c1cc(NC(=O)[C@H]2[C@H](c3cc(Cl)cc(Cl)c3)C2(Cl)Cl)ccc1Cl (relative stereo) [F2097, trans-2-Chloro-5-(2,2-dichloro-3-(3,5-dichlorophenyl)cyclopropane-1-carboxamido)-N-(3-(2,2,3,3,3-pentafluoropropanamido)propyl)benzamide] | 50 to 100 | 50 to 100 | A (80–100) |
| O=C(NCCCCNC(=O)C(F)(F)C(F)(F)F)c1cc(NC(=O)[C@H]2[C@H](c3cc(Cl)cc(Cl)c3)C2(Cl)Cl)ccc1Cl (relative stereo) [F2098, trans-2-Chloro-5-(2,2-dichloro-3-(3,5-dichlorophenyl)cyclopropane-1-carboxamido)-N-(4-(2,2,3,3,3-pentafluoropropanamido)butyl)benzamide] | 50 to 100 | 50 to 100 | B (More than 0 – Less than 80) |
| O=C(NNc1ccccn1)c1cc(NC(=O)[C@H]2[C@H](c3cc(Cl)cc(Cl)c3)C2(Cl)Cl)ccc1Cl (relative stereo) [F2502, trans-2,2-dichloro-N-(4-chloro-3-(2-(pyridin-2-yl)hydrazine-1-carbonyl)phenyl)-3-(3,5-dichlorophenyl)cyclopropane-1-carboxamide] | 50 to 100 | 50 to 100 | A (80–100) |
| O=C(NNc1ccc(Cl)cn1)c1cc(NC(=O)[C@H]2[C@H](c3cc(Cl)cc(Cl)c3)C2(Cl)Cl)ccc1Cl (relative stereo) [F2504, trans-2,2-Dichloro-N-(4-chloro-3-(2-(5-chloropyridin-2-yl)hydrazine-1-carbonyl)phenyl)-3-(3,5-dichlorophenyl)cyclopropane-1-carboxamide] | 50 to 100 | 50 to 100 | A (80–100) |
| O=C(NNc1ncccc1Cl)c1cc(NC(=O)[C@H]2[C@H](c3cc(Cl)cc(Cl)c3)C2(Cl)Cl)ccc1Cl (relative stereo) [F2505, trans-2,2-Dichloro-N-(4-chloro-3-(2-(3-chloropyridin-2-yl)hydrazine-1-carbonyl)phenyl)-3-(3,5-dichlorophenyl)cyclopropane-1-carboxamide] | 50 to 100 | 50 to 100 | A (80–100) |
| O=C(NNc1ccc(Cl)nn1)c1cc(NC(=O)[C@H]2[C@H](c3cc(Cl)cc(Cl)c3)C2(Cl)Cl)ccc1Cl (relative stereo) [F2506, trans-2,2-Dichloro-N-(4-chloro-3-(2-(6-chloropyridazin-3-yl)hydrazine-1-carbonyl)phenyl)-3-(3,5-dichlorophenyl)cyclopropane-1-carboxamide] | 50 to 100 | 50 to 100 | A (80–100) |
| CN(NC(=O)c1cc(NC(=O)[C@H]2[C@H](c3cc(Cl)cc(Cl)c3)C2(Cl)Cl)ccc1Cl)c1cc(C(F)(F)F)ccn1 (relative stereo) [F2507, trans-2,2-Dichloro-N-(4-chloro-3-(2-methyl-2-(4-(trifluoromethyl)pyridin-2-yl)hydrazine-1-carbonyl)phenyl)-3-(3,5-dichlorophenyl)cyclopropane-1-carboxamide] | 50 to 100 | 50 to 100 | A (80–100) |
| O=C(NNc1ncccn1)c1cc(NC(=O)[C@H]2[C@H](c3cc(Cl)cc(Cl)c3)C2(Cl)Cl)ccc1Cl (relative stereo) [F2508, trans-2,2-Dichloro-N-(4-chloro-3-(2-(pyrimidin-2-yl)hydrazine-1-carbonyl)phenyl)-3-(3,5-dichlorophenyl)cyclopropane-1-carboxamide] | 50 to 100 | 50 to 100 | A (80–100) |
